Source: ChEMBL document CHEMBL1201862, “PubChem BioAssay data set” (2004)
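Following 48 hours of exposure in 96-well plates, responses at five concentrations were used to interpolate endpoints linearly. GI50: concentration for 50% inhibition of growth.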 Active and inactive are the calls of the source. Cut-off read from the data, not from the text of the source: active = GI50 up to about 1.1 µM and inactive = higher.

Legend:
Experiment in all cases: NCI anticancer screen, dose series, 48 h
ACHN = tested on: ACHN
DU-145 = tested on: DU-145
T47D = tested on: T47D
OVCAR-4 = tested on: OVCAR-4
HT-29 = tested on: HT-29
LOX IMVI = tested on: LOX IMVI
CAKI-1 = tested on: CAKI-1
NCI-H522 = tested on: NCI-H522
A498 = tested on: A498
SK-MEL-5 = tested on: SK-MEL-5
RXF 393 = tested on: RXF 393
OVCAR-8 = tested on: OVCAR-8
SK-OV-3 = tested on: SK-OV-3
SN12C = tested on: SN12C
NCI/ADR-RES = tested on: NCI/ADR-RES
HCC 2998 = tested on: HCC 2998
SF-268 = tested on: SF-268
786-0 = tested on: 786-0
Malme-3M = tested on: Malme-3M
SNB-75 = tested on: SNB-75

Measured: GI50

CC1NC(C(=O)O)Cc2cc(O)c(O)cc21 (stereo unspecified)
inactive: ACHN > 100 µM | DU-145 > 100 µM | T47D > 100 µM | OVCAR-4 > 100 µM | HT-29 > 100 µM | LOX IMVI > 100 µM | CAKI-1 > 100 µM | NCI-H522 > 100 µM | A498 > 100 µM | SK-MEL-5 > 100 µM | RXF 393 > 100 µM | OVCAR-8 > 100 µM | SK-OV-3 > 100 µM | SN12C > 100 µM | NCI/ADR-RES > 100 µM | HCC 2998 > 100 µM | SF-268 > 100 µM | 786-0 > 100 µM | Malme-3M > 100 µM

O=C(/N=C1/NCC(CN2CCN(c3ccccc3)CC2)O1)Nc1ccccc1 (stereo unspecified)
inactive: ACHN > 100 µM | DU-145 > 100 µM | T47D > 100 µM | OVCAR-4 > 100 µM | HT-29 63.8 µM | LOX IMVI > 100 µM | CAKI-1 > 100 µM | NCI-H522 > 100 µM | A498 > 100 µM | SK-MEL-5 > 100 µM | RXF 393 > 100 µM | SK-OV-3 > 100 µM | SN12C > 100 µM | NCI/ADR-RES > 100 µM | HCC 2998 > 100 µM | SF-268 > 100 µM | 786-0 > 100 µM | Malme-3M > 100 µM

Cc1ccc(S(=O)(=O)OC2C(C3COC(C)(C)O3)OC3OC(C)(C)OC32)cc1 (stereo unspecified)
inactive: ACHN > 100 µM | SNB-75 > 100 µM | DU-145 > 100 µM | T47D > 100 µM | OVCAR-4 > 100 µM | HT-29 > 100 µM | LOX IMVI > 100 µM | CAKI-1 > 100 µM | NCI-H522 > 100 µM | A498 > 100 µM | SK-MEL-5 > 100 µM | RXF 393 > 100 µM | OVCAR-8 > 100 µM | SN12C > 100 µM | NCI/ADR-RES > 100 µM | HCC 2998 > 100 µM | SF-268 > 100 µM | 786-0 > 100 µM | Malme-3M > 100 µM

CNc1ncnc2c1cnn2Cc1cn(CCCCO)nn1
inactive: ACHN > 100 µM | DU-145 > 100 µM | T47D > 100 µM | OVCAR-4 > 100 µM | HT-29 > 100 µM | LOX IMVI > 100 µM | CAKI-1 > 100 µM | NCI-H522 > 100 µM | A498 > 100 µM | SK-MEL-5 > 100 µM | RXF 393 > 100 µM | OVCAR-8 > 100 µM | SK-OV-3 > 100 µM | SN12C > 100 µM | NCI/ADR-RES > 100 µM | HCC 2998 > 100 µM | SF-268 > 100 µM | 786-0 > 100 µM | Malme-3M > 100 µM

CCOc1ccc2c(c1)c(=O)c1c(NCCN(CC)CC)ccc3nnn2c31
inactive: ACHN 15.6 µM | DU-145 19.1 µM | T47D > 100 µM | OVCAR-4 11.9 µM | HT-29 12.6 µM | LOX IMVI 11.4 µM | CAKI-1 20.7 µM | NCI-H522 7.6 µM | A498 > 100 µM | SK-MEL-5 16.3 µM | RXF 393 8.55 µM | OVCAR-8 7.05 µM | SK-OV-3 > 100 µM | SN12C 9.82 µM | NCI/ADR-RES 12.3 µM | HCC 2998 > 33.6 µM | SF-268 21.5 µM | 786-0 > 32.8 µM | Malme-3M 17.1 µM

Cc1nc2c(Cl)cc(Cl)cc2c(Cl)c1CCCl
inactive: ACHN > 100 µM | SNB-75 42.9 µM | DU-145 > 100 µM | T47D 52.8 µM | HT-29 78.7 µM | LOX IMVI > 100 µM | CAKI-1 64 µM | NCI-H522 87.1 µM | A498 72.4 µM | SK-MEL-5 45.8 µM | RXF 393 22.8 µM | OVCAR-8 > 100 µM | SK-OV-3 > 100 µM | SN12C > 100 µM | NCI/ADR-RES 72.3 µM | HCC 2998 > 100 µM | SF-268 75.2 µM | 786-0 > 100 µM | Malme-3M > 100 µM

Nc1nc(Nc2ccccc2)sc1C(=O)c1cccs1
inactive: ACHN 16.8 µM | DU-145 8.97 µM | T47D 21.2 µM | OVCAR-4 15.5 µM | HT-29 5.32 µM | LOX IMVI 11.2 µM | CAKI-1 14.4 µM | NCI-H522 11 µM | A498 14.6 µM | SK-MEL-5 4.08 µM | RXF 393 5.93 µM | OVCAR-8 21.1 µM | SK-OV-3 29.4 µM | SN12C 16 µM | NCI/ADR-RES 21.2 µM | HCC 2998 17 µM | SF-268 18.2 µM | 786-0 11.5 µM | Malme-3M 22.1 µM

O=C(NC(Cc1c[nH]cn1)C(=O)N1CCCC1)C1CCCC1 (stereo unspecified)
inactive: ACHN > 100 µM | SNB-75 > 100 µM | DU-145 > 100 µM | T47D > 10 µM | OVCAR-4 > 100 µM | HT-29 > 100 µM | LOX IMVI > 100 µM | CAKI-1 > 100 µM | NCI-H522 > 100 µM | A498 37.9 µM | SK-MEL-5 > 100 µM | RXF 393 > 100 µM | OVCAR-8 > 100 µM | SK-OV-3 > 100 µM | SN12C > 100 µM | NCI/ADR-RES > 100 µM | HCC 2998 > 100 µM | 786-0 > 100 µM | Malme-3M > 100 µM
